Measurements from US20080293699A1, “Inhibitors of thapsigargin-induced cell death” (priority 2007, published 2008).
Where two headings read alike, the source gives them in different places.

Tested on: CSM14.1 cells
Experiment: Primary HTS assay: ATP content (ATPlite) of undifferentiated CSM14.1 cells challenged with thapsigargin
Type: cell-based, rat
Settings: for IC50: thapsigargin-induced death of undifferentiated CSM14.1, ATP content
In short: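 Undifferentiated CSM14.1 cells, 3,000/well, cultured overnight at 32 °C, then test compounds at ~15 μg/mL final (1% DMSO) added. Thapsigargin ~15 μM final given after 2 h; ATPlite luminescence read after 24 h as survival surrogate, with 100 μM Salubrinal as maximum and DMSO as minimum.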

[1] = first assay, read-out: IC50 (μM), first value
[2] = one value given, read-out: IC50
[3] = second assay (value in bold), read-out: IC50 (μM), value from a second assay

Structure (SMILES) | IC50 [1] [µM] | IC50 [2] [µM] | IC50 [3] [µM] | Cytoprotective activity, stimulus Thapsigargin (Result) (readout ATP & Annexin, CSM 14.1, compound ≦25 μM)
COc1ccc(C2CC(=O)C3=C(C2)Nc2ccccc2NC3c2ccccc2C(F)(F)F)cc1OC (centres unmarked) [Compound 6237735] | 17.2 ± 0.471 | 12.5 ± 0.186 | 12.5 ± 0.186 | 
CCN(CC)c1ccc(C2Nc3ccccc3NC3=C2C(=O)CC(c2ccccc2)C3)cc1 (centres unmarked) [Compound 5962123, 6-(4-diethylaminophenyl)-9-phenyl-5,6,8,9,10,11-hexahydrobenzo[c][1,5]benzodiazepin-7-one] |  | 7.5 ± 0.857 |  | + (+indicates ≧50% rescue of cell viability relative to untreated cells not exposed to thapsigargin at compound concentration of ≦25 μM)
COc1ccc(C2CC(=O)C3=C(C2)Nc2ccccc2NC3c2cccc(Oc3ccccc3)c2)cc1OC (centres unmarked) [Compound 6239507] | 13.9 ± 0.26 | 10.2 ± 1.62 | 10.2 ± 1.62 | 
